Reference: the supplement of paper PMC11208160

Test: recombinant barcode read abundance after kanamycin selection (control-corrected) (log10(CPM+1)); higher = more efficient recombination; sequences stand for … in AGTGCAGAGAAAATCGGCCAGTTTTCTCTGCCTGCAGTCCGCATGCCGT…AGATTTATGCAGCGGACTGCCTTTCTCCCAAAGTGATAAACCGGACAGTATCATGGACCGGTTTTCCCGGTAATCCGTATTTGCAAGGTTGGTTTCACT; site = the 11-nt target
How it was run: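 Recombination efficiency in this pooled E. coli screen uses counts per million of barcodes at recombinant junctions, averaged and corrected against the control. The reported form is log10(CPM+1). Two replicates were plated on chloramphenicol/ampicillin LB agar as control and two on chloramphenicol/ampicillin/kanamycin with 0.1 mM IPTG.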
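Also: IS621 recombinase and bridge RNA in Escherichia coli cells.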

“ATGTAGGCTTGGGTTCTAACCTGTTGCCT (site ATGTTAGCTAG)” and “ATGTATTCTTGGGTTCTAACCTGTTGCCT (site AACTATTCTAG)” are within 0.2 log units of each other in “recombinant barcode read abundance (log10)” value: 0.127 for the first, 0.0758 for the second.

Compared with “ATGTATTCTTGGGTTCTAACCTGTTGCCT (site ATGTATTCTAG)”, “ATGTCGTCTTGGGTTCTAACCTGTTGCCT (site AAGTCGTCTAG)” is lower in “recombinant barcode read abundance (log10)” value: 0.828 for the first, 0.0812 for the second.

“ATGTCGTCTTGGGTTCTAACCTGTTGCCT (site ACGTCGTCTAG)” and “ATGTCGTCTTGGGTTCTAACCTGTTGCCT (site AGGTCGTCTAG)” are within 0.2 log units of each other in “recombinant barcode read abundance (log10)” value: 0.296 for the first, 0.141 for the second.

“ATGTCGTCTTGGGTTCTAACCTGTTGCCT (site ATGTCGTCTAG)” and “ATGTCTCCTTGGGTTCTAACCTGTTGCCT (site ATGTCTCCTAG)” are within 0.2 log units of each other in “recombinant barcode read abundance (log10)” value: 1.13 for the first, 1 for the second.

“ATGTCTCCTTGGGTTCTAACCTGTTGCCT (site CTGTCTCCTAG)” and “ATGTCTCCTTGGGTTCTAACCTGTTGCCT (site GTGTCTCCTAG)” are within 0.2 log units of each other in “recombinant barcode read abundance (log10)” value: 0.0833 for the first, 0.0531 for the second.

First: ATGTCTCCTTGGGTTCTAACCTGTTGCCT (site TTGTCTCCTAG)
Second: ATTAATCCTTGGGTTCTAACCTGTTGCCT (site ATTAAATCTAG)
The “recombinant barcode read abundance (log10)” value of the first is lower: 0.228 for the first, 0.441 for the second.

“ATTAATCCTTGGGTTCTAACCTGTTGCCT (site ATTAATCCTAG)” and “ATTACTACTTGGGTTCTAACCTGTTGCCT (site AATACTACTAG)” are within 0.2 log units of each other in “recombinant barcode read abundance (log10)” value: 0.0839 for the first, 0.124 for the second.

Compared with “ATTACTACTTGGGTTCTAACCTGTTGCCT (site ACTACTACTAG)”, “ATTACTACTTGGGTTCTAACCTGTTGCCT (site AGTACTACTAG)” is higher in “recombinant barcode read abundance (log10)” value: 0.0886 for the first, 0.343 for the second.

“ATTACTACTTGGGTTCTAACCTGTTGCCT (site ATTACTACTAG)” and “ATTAGGGCTTGGGTTCTAACCTGTTGCCG (site ATTAGGGCTCG)” are within 0.2 log units of each other in “recombinant barcode read abundance (log10)” value: 0.411 for the first, 0.413 for the second.

Going from “ATTAGGGCTTGGGTTCTAACCTGTTGCCG (site ATTGGGGCTCT)” to “ATTCAAACTTGGGTTCTAACCTGTTGCCT (site ATTCAAACTAG)”, the “recombinant barcode read abundance (log10)” value rises from 0.192 to 0.788.

“ATTCAAACTTGGGTTCTAACCTGTTGCCT (site GTTCAAACTAT)” and “ATTCGGGCTTGGGTTCTAACCTGTTGCGT (site ATTCGAGCTGC)” are within 0.2 log units of each other in “recombinant barcode read abundance (log10)” value: 0.088 for the first, 0.0603 for the second.

Compared with “ATTCGGGCTTGGGTTCTAACCTGTTGCGT (site ATTCGGGCTAC)”, “ATTGGGTCTTGGGTTCTAACCTGTTGCCT (site ATTGGATCTAG)” is lower in “recombinant barcode read abundance (log10)” value: 2.07 for the first, 0.445 for the second.

First: ATTGGGTCTTGGGTTCTAACCTGTTGCCT (site ATTGGCTCTAG)
Second: ATTGGGTCTTGGGTTCTAACCTGTTGCCT (site ATTGGGTCTAG)
The “recombinant barcode read abundance (log10)” value of the first is lower: 0.0688 for the first, 0.818 for the second.

Compared with “ATTGGGTCTTGGGTTCTAACCTGTTGCCT (site ATTGGTTCTAG)”, “ATTTAACCTTGGGTTCTAACCTGTTGCGT (site ATTTAACCTAC)” is higher in “recombinant barcode read abundance (log10)” value: 0.102 for the first, 2.11 for the second.

“ATTTAACCTTGGGTTCTAACCTGTTGCGT (site GGGGTGTCTCG)” and “ATTTCGACTTGGGTTCTAACCTGTTGCCT (site AATTCGACTAG)” are within 0.2 log units of each other in “recombinant barcode read abundance (log10)” value: 0.0805 for the first, 0.0716 for the second.

“ATTTCGACTTGGGTTCTAACCTGTTGCCT (site ACTTCGACTAG)” and “ATTTCGACTTGGGTTCTAACCTGTTGCCT (site AGTTCGACTAG)” are within 0.2 log units of each other in “recombinant barcode read abundance (log10)” value: 0.044 for the first, 0.142 for the second.

“ATTTCGACTTGGGTTCTAACCTGTTGCCT (site ATTTCGACTAG)” and “CAAACATCTTGGGTTCTAACCTGTTGCCT (site CAAACAACTAG)” are within 0.2 log units of each other in “recombinant barcode read abundance (log10)” value: 0.16 for the first, 0.129 for the second.

“CAAACATCTTGGGTTCTAACCTGTTGCCT (site CAAACACCTAG)” and “CAAACATCTTGGGTTCTAACCTGTTGCCT (site CAAACAGCTAG)” are within 0.2 log units of each other in “recombinant barcode read abundance (log10)” value: 0.0425 for the first, 0.0169 for the second.

“CAAACATCTTGGGTTCTAACCTGTTGCCT (site CAAACATCTAG)” and “CAAACTACTTGGGTTCTAACCTGTTGCCA (site CAAACTACTTG)” are within 0.2 log units of each other in “recombinant barcode read abundance (log10)” value: 0.162 for the first, 0.0171 for the second.

Compared with “CAAACTACTTGGGTTCTAACCTGTTGCCA (site TTGCGGCCTCT)”, “CAAAGAGCTTGGGTTCTAACCTGTTGCTG (site CAAAGAGCTCA)” is higher in “recombinant barcode read abundance (log10)” value: 0.078 for the first, 1.38 for the second.

“CAAAGAGCTTGGGTTCTAACCTGTTGCTG (site GTCCAGCCTGT)” and “CAAAGTCCTTGGGTTCTAACCTGTTGCAT (site CAAAGTCCTAA)” are within 0.2 log units of each other in “recombinant barcode read abundance (log10)” value: 0.0339 for the first, 0.191 for the second.

First: CAAAGTCCTTGGGTTCTAACCTGTTGCAT (site CAAAGTCCTAC)
Second: CAAAGTCCTTGGGTTCTAACCTGTTGCAT (site CAAAGTCCTAG)
The “recombinant barcode read abundance (log10)” value of the first is lower: 0.0225 for the first, 0.59 for the second.

Compared with “CAAAGTCCTTGGGTTCTAACCTGTTGCAT (site CAAAGTCCTAT)”, “CAAAGTCCTTGGGTTCTAACCTGTTGCGT (site CAAAGTCCTAA)” is lower in “recombinant barcode read abundance (log10)” value: 1.46 for the first, 0.128 for the second.

Compared with “CAAAGTCCTTGGGTTCTAACCTGTTGCGT (site CAAAGTCCTAC)”, “CAAAGTCCTTGGGTTCTAACCTGTTGCGT (site CAAAGTCCTAG)” is lower in “recombinant barcode read abundance (log10)” value: 2.24 for the first, 0.294 for the second.

Going from “CAAAGTCCTTGGGTTCTAACCTGTTGCGT (site CAAAGTCCTAT)” to “CAAATTACTTGGGTTCTAACCTGTTGCCT (site CAAATTACTAG)”, the “recombinant barcode read abundance (log10)” value falls from 0.932 to 0.0574.

Compared with “CAAATTACTTGGGTTCTAACCTGTTGCCT (site CAGATGACTAG)”, “CAACCTTCTTGGGTTCTAACCTGTTGCCT (site CAACCTTCTAG)” is higher in “recombinant barcode read abundance (log10)” value: 0.161 for the first, 0.7 for the second.

First: CAACCTTCTTGGGTTCTAACCTGTTGCCT (site CTACCTTCTAG)
Second: CAAGACCCTTGGGTTCTAACCTGTTGCCT (site CAAGACCCTAG)
The “recombinant barcode read abundance (log10)” value of the first is lower: 0.025 for the first, 2.5 for the second.

Going from “CAAGACCCTTGGGTTCTAACCTGTTGCCT (site CACGACCCTAG)” to “CAAGACCCTTGGGTTCTAACCTGTTGCCT (site CAGGACCCTAG)”, the “recombinant barcode read abundance (log10)” value rises from 0.763 to 1.05.

Going from “CAAGACCCTTGGGTTCTAACCTGTTGCCT (site CATGACCCTAG)” to “CAAGAGTCTTGGGTTCTAACCTGTTGCTT (site CAAGAGTCTAA)”, the “recombinant barcode read abundance (log10)” value rises from 1.17 to 2.26.

With “CAAGAGTCTTGGGTTCTAACCTGTTGCTT (site CGAGAGACTAA)” the “recombinant barcode read abundance (log10)” value was 0.178.
